Measured values: patent publication US20090227619A1, “Harmine derivatives, intermediates used in their preparations, preparation processes and use therefo” (priority 2003, published 2009)
pIC50: −log10 of the molar value. Where two headings read alike, the source gives them in different places.

Columns and labels:
[1] = in vivo; details: both, mouse, ip
Protocol: (§2) Five grades of dosages for each sample according to the results of the preliminary test, each dosage being 0.8 larger than the previous one
(§3) During the experiment, each sample was added a small amount of Tween-80 to facilitate dissolution after the sample was weighed, and then 0.5% CMC-Na solution was gradually added to achieve the desired concentration. The experimental volume was 0.5 ml/20 g mouse.
(§4) Single injection via intraperitoneal (i.p.) to different groups mice.
(§5) Kunming mice were divided into different groups randomly according to their sex. The medicament was intraperitoneally administered to each group of mice according to the dosage setting. After the administration of the medicaments, mice were observed continuously for the first 2 h for any gross behavioral changes and deaths. Dead animals were dissected and examined for any possible organ damage. […] Conditions of animals died within two week were recorded. After two weeks, all survived animals were sacrificed and checked macroscopically for possible damage to the heart, liver, kidneys and so on. Viscera that had substantive pathological changes were pathologically examined.

[2] = tested on: BGC-823; assay: In vitro cytotoxicity, IC50 by MTT method, BGC-823; assay type: cell-based; details: Homo sapiens, BGC-823; BGC823 cell strain; read-out: IC50 BGC823
How it was run: (§1)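 MTT viability, 48 h exposure: cells 10^5/ml in RPMI1640 + 10% FBS, 37 °C/5% CO2; MTT 4 h, DMSO solubilisation, A490.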

[3] = tested on: Bel-7402; assay: In vitro cytotoxicity, IC50 by MTT method, Bel-7402; assay type: cell-based; details: Homo sapiens, Bel-7402; Bel7402 cell strain; read-out: IC50 Bel7402
How it was run: as §1

[4] = tested on: S180 sarcoma; details: S180 sarcoma; for Body weight of the animals, beginning, First time / Body weight of the animals, end, First time / Inhibition rate, First time / Weight of the tumor X ± SD, First time / Body weight of the animals, beginning, Second time / Body weight of the animals, end, Second time / Inhibition rate, Second time: ip × 10qd; for Inhibition rate (%) S180 sarcomata: comparison table 43, in vivo
[5] = tested on: Kunming mice; details: for Death rate: single i.p.
Protocol: as §2, §3, §4, §5

[6] = tested on: NIH3T3; assay: In vitro cytotoxicity, IC50 by MTT method, NIH3T3; assay type: cell-based; details: Mus musculus; NIH3T3 cell strain; read-out: IC50 NIH3T3
How it was run: as §1

[7] = tested on: HepG2; assay: In vitro cytotoxicity, IC50 by MTT method, HepG2; assay type: cell-based, human; details: Homo sapiens; HepG2 cell strain; read-out: IC50 HepG2
How it was run: as §1

[8] = tested on: Hela; assay: In vitro cytotoxicity, IC50 by MTT method, Hela; assay type: cell-based; details: Homo sapiens; Hela cell strain; read-out: IC50 Hela
How it was run: as §1

[9] = tested on: Lovo; assay: In vitro cytotoxicity, IC50 by MTT method, Lovo; assay type: cell-based; details: Homo sapiens; Lovo cell strain; read-out: IC50 Lovo
How it was run: as §1

[10] = tested on: Lewis lung cancer; details: for Body weight of the animals, end, First time / Body weight of the animals, end, Second time / Body weight of the animals, beginning, First time / Inhibition rate, First time / Weight of the tumor X ± SD, First time / Body weight of the animals, beginning, Second time / Inhibition rate, Second time / Weight of the tumor X ± SD, Second time / Inhibition rate (%) Lewis cancer: Lewis lung cancer; for Body weight of the animals, end, First time / Body weight of the animals, end, Second time: ip × 10qd; for Inhibition rate (%) Lewis cancer: comparison table 43, in vivo;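 as to all read-outs here: mice implanted subcutaneously in the axilla with Lewis lung tumor cells, treated starting the following day, killed roughly three weeks after implantation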
[11] = tested on: PLA-801; assay: In vitro cytotoxicity, IC50 by MTT method, PLA-801; assay type: cell-based; details: PLA-801 cell strain; read-out: IC50 PLA-801
How it was run: as §1

[12] = 50% male 50% female mice, 240 mg/kg
[13] = 50% male 50% female mice, 300 mg/kg
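For Death rate in this document: acute toxicity in Kunming mice grouped by sex, one intraperitoneal dose at five graded levels in Tween-80 plus 0.5% CMC-Na, deaths monitored over two weeks.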
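For LD50 in this document: acute toxicity in Kunming mice grouped by sex, one intraperitoneal dose at five graded levels in Tween-80 plus 0.5% CMC-Na, deaths monitored over two weeks.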
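For MTD in this document: acute toxicity in Kunming mice grouped by sex, one intraperitoneal dose at five graded levels in Tween-80 plus 0.5% CMC-Na, deaths monitored over two weeks.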

SMILES: O=C(O)c1cc2c3ccccc3n(CCCc3ccccc3)c2cn1 [Compound 48, 9-phenylpropyl-β-carboline-3-carboxylic acid]
- LD50 at 2 weeks [1]: 219 mg/kg
- pIC50 [2]: 4.52
- pIC50 [3]: 4.30
- Body weight of the animals, beginning, First time ([4]; Dosage 50 (mg/ml)): 19.4 g
- Body weight of the animals, end, First time ([4]; Dosage 50 (mg/ml)): 24.8 g
- Inhibition rate, First time ([4]; Dosage 50 (mg/ml)): 19.48%
- Weight of the tumor X ± SD, First time ([4]; Dosage 50 (mg/ml)): 2.15 ± 0.39 g
- Body weight of the animals, beginning, Second time ([4]; Dosage 50 (mg/ml)): 18.6 g
- Body weight of the animals, end, Second time ([4]; Dosage 50 (mg/ml)): 25.8 g
- Inhibition rate, Second time ([4]; Dosage 50 (mg/ml)): 21.85%
- Weight of the tumor X ± SD, Second time ([4]; Dosage 50, ip × 10qd): 2.11 ± 0.25 g
- Body weight of the animals, beginning, First time ([4]; Dosage 100 (mg/ml)): 19.4 g
- Body weight of the animals, end, First time ([4]; Dosage 100 (mg/ml)): 24.8 g
- Inhibition rate, First time ([4]; Dosage 100 (mg/ml)): 31.09%
- Weight of the tumor X ± SD, First time ([4]; Dosage 100 (mg/ml)): 1.84 ± 0.11 g
- Body weight of the animals, beginning, Second time ([4]; Dosage 100 (mg/ml)): 18.5 g
- Body weight of the animals, end, Second time ([4]; Dosage 100 (mg/ml)): 26.0 g
- Inhibition rate, Second time ([4]; Dosage 100 (mg/ml)): 32.22%
- Weight of the tumor X ± SD, Second time ([4]; Dosage 100, ip × 10qd): 1.83 ± 0.16 g
- Inhibition rate (%) S180 sarcomata [4]: 32.22%
- Death rate [5, 12]: 60
- Death rate [5, 13]: 100
- Death rate ([5]; female mice, 240 mg/kg): 60
- Death rate ([5]; female mice, 300 mg/kg): 100
- Death rate ([5]; male mice, 240 mg/kg): 60
- Death rate ([5]; male mice, 300 mg/kg): 100
- LD50 ([5]; mouse, in vivo, ip): 193 to 249 mg/kg
- pIC50 [6]: 4.52
- pIC50 [7]: 4.52
- pIC50 [8]: 4.00
- pIC50 [9]: 5.00
- Body weight of the animals, end, First time ([10]; Dosage 50 (mg/ml)): 25.3 g
- Body weight of the animals, end, Second time ([10]; Dosage 50 (mg/ml)): 25.0 g
- Body weight of the animals, beginning, First time ([10]; Dosage 50, ip × 10qd): 20.1 g
- Inhibition rate, First time ([10]; Dosage 50, ip × 10qd): 25.10%
- Weight of the tumor X ± SD, First time ([10]; Dosage 50, ip × 10qd): 1.82 ± 0.10 g
- Body weight of the animals, beginning, Second time ([10]; Dosage 50, ip × 10qd): 19.0 g
- Inhibition rate, Second time ([10]; Dosage 50, ip × 10qd): 28.67%
- Weight of the tumor X ± SD, Second time ([10]; Dosage 50, ip × 10qd): 2.09 ± 0.19 g
- Body weight of the animals, end, First time ([10]; Dosage 100 (mg/ml)): 24.8 g
- Body weight of the animals, end, Second time ([10]; Dosage 100 (mg/ml)): 25.2 g
- Body weight of the animals, beginning, First time ([10]; Dosage 100, ip × 10qd): 19.8 g
- Inhibition rate, First time ([10]; Dosage 100, ip × 10qd): 34.98%
- Weight of the tumor X ± SD, First time ([10]; Dosage 100, ip × 10qd): 1.58 ± 0.08 g
- Body weight of the animals, beginning, Second time ([10]; Dosage 100, ip × 10qd): 19.3 g
- Inhibition rate, Second time ([10]; Dosage 100, ip × 10qd): 39.59%
- Weight of the tumor X ± SD, Second time ([10]; Dosage 100, ip × 10qd): 1.77 ± 0.15 g
- Inhibition rate (%) Lewis cancer [10]: 39.59%
- pIC50 [11]: 3.59

SMILES: CCOC(=O)Nc1cc2c3ccccc3n(Cc3ccccc3)c2cn1 [Compound 55, 3-[(ethoxycarbonyl)amino]-9-benzyl-β-carboline]
- MTD at 2 weeks [1]: 240 mg/kg
- pIC50 [2]: < 2.52
- pIC50 [3]: 2.61
- Body weight of the animals, beginning, First time ([4]; Dosage 50 (mg/ml)): 19.8 g
- Body weight of the animals, end, First time ([4]; Dosage 50 (mg/ml)): 27.0 g
- Inhibition rate, First time ([4]; Dosage 50 (mg/ml)): 23.51%
- Weight of the tumor X ± SD, First time ([4]; Dosage 50 (mg/ml)): 2.18 ± 0.23 g
- Body weight of the animals, beginning, Second time ([4]; Dosage 50 (mg/ml)): 20.9 g
- Body weight of the animals, end, Second time ([4]; Dosage 50 (mg/ml)): 24.8 g
- Inhibition rate, Second time ([4]; Dosage 50 (mg/ml)): 20.00%
- Weight of the tumor X ± SD, Second time ([4]; Dosage 50, ip × 10qd): 2.28 ± 0.18 g
- Body weight of the animals, beginning, First time ([4]; Dosage 100 (mg/ml)): 19.4 g
- Body weight of the animals, end, First time ([4]; Dosage 100 (mg/ml)): 26.7 g
- Inhibition rate, First time ([4]; Dosage 100 (mg/ml)): 29.12%
- Weight of the tumor X ± SD, First time ([4]; Dosage 100 (mg/ml)): 2.02 ± 0.22 g
- Body weight of the animals, beginning, Second time ([4]; Dosage 100 (mg/ml)): 20.3 g
- Body weight of the animals, end, Second time ([4]; Dosage 100 (mg/ml)): 24.9 g
- Inhibition rate, Second time ([4]; Dosage 100 (mg/ml)): 28.07%
- Weight of the tumor X ± SD, Second time ([4]; Dosage 100, ip × 10qd): 2.05 ± 0.17 g
- Inhibition rate (%) S180 sarcomata [4]: 29.12%
- Death rate [5, 12]: 0
- Death rate [5, 13]: 50
- Death rate ([5]; female mice, 240 mg/kg): 0
- Death rate ([5]; female mice, 300 mg/kg): 60
- Death rate ([5]; male mice, 240 mg/kg): 0
- Death rate ([5]; male mice, 300 mg/kg): 40
- pIC50 [6]: 2.75
- pIC50 [7]: < 2.52
- pIC50 [8]: < 2.52
- pIC50 [9]: 2.67
- Anti-tumor activity compared with harmine (compound 1) ([10]; Lewis lung cancer in mice, among 22 compounds tested): a little worse than or equivalent to that of harmines
- Body weight of the animals, end, First time ([10]; Dosage 50 (mg/ml)): 23.8 g
- Body weight of the animals, end, Second time ([10]; Dosage 50 (mg/ml)): 24.5 g
- Body weight of the animals, beginning, First time ([10]; Dosage 50, ip × 10qd): 18.7 g
- Inhibition rate, First time ([10]; Dosage 50, ip × 10qd): 21.91%
- Weight of the tumor X ± SD, First time ([10]; Dosage 50, ip × 10qd): 1.96 ± 0.12 g
- Body weight of the animals, beginning, Second time ([10]; Dosage 50, ip × 10qd): 19.6 g
- Inhibition rate, Second time ([10]; Dosage 50, ip × 10qd): 24.58%
- Weight of the tumor X ± SD, Second time ([10]; Dosage 50, ip × 10qd): 1.78 ± 0.19 g
- Body weight of the animals, end, First time ([10]; Dosage 100 (mg/ml)): 23.5 g
- Body weight of the animals, end, Second time ([10]; Dosage 100 (mg/ml)): 23.9 g
- Body weight of the animals, beginning, First time ([10]; Dosage 100, ip × 10qd): 19.1 g
- Inhibition rate, First time ([10]; Dosage 100, ip × 10qd): 29.88%
- Weight of the tumor X ± SD, First time ([10]; Dosage 100, ip × 10qd): 1.76 ± 0.10 g
- Body weight of the animals, beginning, Second time ([10]; Dosage 100, ip × 10qd): 19.7 g
- Inhibition rate, Second time ([10]; Dosage 100, ip × 10qd): 30.93%
- Weight of the tumor X ± SD, Second time ([10]; Dosage 100, ip × 10qd): 1.63 ± 0.18 g
- Inhibition rate (%) Lewis cancer [10]: 30.93%
- pIC50 [11]: 3.28
